# Data from patent US7402310B2, “Deoxyribonuclease, gene encoding same and use thereof” (priority 2001, dated 2008).
# T1: DLAD (Mus musculus, UniProt Q9QY48)
# T1 construct: These plasmids encode the mature proteins of DLAD and DNase II, respectively, wherein Myc and His-tags are added to their C termini; made in house; host or cells: HeLa S3 cells (human), transient transfection, Ni-NTA purification
# T1 sequence (Q9QY48 23-354): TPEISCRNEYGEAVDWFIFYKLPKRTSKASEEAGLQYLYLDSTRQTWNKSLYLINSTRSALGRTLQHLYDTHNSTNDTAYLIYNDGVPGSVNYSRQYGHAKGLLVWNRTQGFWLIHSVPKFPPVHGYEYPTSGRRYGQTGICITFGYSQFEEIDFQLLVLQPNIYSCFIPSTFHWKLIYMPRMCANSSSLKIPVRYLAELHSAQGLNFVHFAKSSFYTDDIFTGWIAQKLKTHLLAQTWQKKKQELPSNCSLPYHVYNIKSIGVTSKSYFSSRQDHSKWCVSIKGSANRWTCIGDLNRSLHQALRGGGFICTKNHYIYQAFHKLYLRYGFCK
# B1: rat DLAD: recombinant rat DLAD, ORF encoding 356 amino acids, Myc and His-tags at the C terminus (protein, UniProt Q9QZK9 23-356, looked up)
# Deoxyribonuclease-2-beta: TPVISCINEDGKAVDWFAFYKLPRRTSRGGTGMGLDYLYLDSTMRTWSKSHHLINSSRSSLGRTLEQLYEAHNAKNDTAYLIYNDAVPASVNYSGNYGHAKGLLVWNRVQGFWLIHSIPKFPPVPEKGYEYPSSGRQYAQSGLCITLKYSQYETIDSQLLVFQPNIYSCFIPNIFRWELIHMPQMCAKSSASKIPSRRLTVLQSAQGLNFLHFAKSTFYTDDIFAAWIAQKLKVHLLVESWQRKNHELPSNCSLPYHVYNIKAIRGPLQSDFPSHHDHSKWCVSTKDSQARWTCIGDLNRSPHQALRSGGFICSKNRYIYQSFDRLVSHYASCN
# modifications: C-terminal Myc and His tags
# notes: recombinant rat DLAD, ORF encoding 356 amino acids, Myc and His-tags at the C terminus
# B2: DLAD: novel acid DNase cleaving DNA independently from divalent cations; mouse, amino acid Nos. 1 to 332 of SEQ ID NO: 1 (protein, listed as Mus musculus)
# chain: MTAKPLRTVLSLLFFALSGVLGTPEISCRNEYGEAVDWFIFYKLPKRTSKASEEAGLQYLYLDSTRQTWNKSLYLINSTRSALGRTLQHLYDTHNSTNDTAYLIYNDGVPGSVNYSRQYGHAKGLLVWNRTQGFWLIHSVPKFPPVHGYEYPTSGRRYGQTGICITFGYSQFEEIDFQLLVLQPNIYSCFIPSTFHWKLIYMPRMCANSSSLKIPVRYLAELHSAQGLNFVHFAKSSFYTDDIFTGWIAQKLKTHLLAQTWQKKKQELPSNCSLPYHVYNIKSIGVTSKSYFSSRQDHSKWCVSIKGSANRWTCIGDLNRSLHQALRGGGFI
# B3: human DLAD: recombinant human DLAD, SEQ ID NO: 3, Myc and His-tags at the C terminus (protein, listed as Homo sapiens)
# chain: MKQKMMARLLRTSFALLFLGLFGVLGAATISCRNEEGKAVDWFTFYKLPKRQNKESGETGLEYLYLDSTTRSWRKSEQLMNDTKSVLGRTLQQLYEAYASKSNNTAYLIYNDGVPKPVNYSRKYGHTKGLLLWNRVQGFWLIHSIPQFPPIPEEGYDYPPTGRRNGQSGICITFKYNQYEAIDSQLLVCNPNVYSCSIPATFHQELIHMPQLCTRASSSEIPGRLLTTLQSAQGQKFLHFAKSDSFLDGIFAAWMAQRLKTHLLTETWQRKRQELPSNCSLPYHVYNIKAIKLSRHSYFSSYQDHAKWCISQKGTKNRWTCIGDLNRSPHQAFRSGGFICTQNWQIYQAFQGLVLYYESCK
# modifications: C-terminal Myc and His tags
# Columns and labels:
# [1] = target: T1, DLAD; assay: Sensitivity of DLAD DNase activity against inhibitors; assay type: biochemical; conditions: standard conditions: pH 5.2, 45° C., 20 min, plasmid DNA substrate; read-out: IC50, inhibition of DLAD activity
# Description: In the same manner as in (2) of Example 3, HeLa S3 cells (5×10^6) were transfected with 25 μg of pcmDLAD-Myc-His or pcmDNaseII-Myc-His, individually. These plasmids encode the mature proteins of DLAD and DNase II, respectively, wherein Myc and His-tags are added to their C termini. After incubation of the cells for 48 hr, recombinant DLAD and recombinant DNase II were purified by IMAC using Ni-NTA spin column, in the same manner as in (2) of Example 3. The purified DLAD (or DNase II), which was eluted in 300 μl of elution buffer [50 mM sodium phosphate (pH 8.0) containing 250 mM imidazole and 300 mM NaCl], was dialyzed against 20 mM Mes-NaOH containing 1 mM 2-mercaptoethanol and used in the following assay for enzyme activities. The Sample obtained by treating HeLa S3 cells transfected with empty vector in the same manner was used as a control.
# In the following experiments, the assay for DNase activity was performed as below, unless otherwise described. 20 μl of reaction mixture [50 mM Mes-NaOH (pH 5.2), 1 mM 2-mercaptoethanol, 1 unit of enzyme, 500 ng supercoiled or EcoR I-digested linear pBLUESCRIPT KS+ phagemid vector] was prepared on ice and incubated at 45° C. for 20 min. The reaction was terminated with phenol/chloroform and 5 μl aliquot of the reaction mixture was subjected to 1% agarose gel electrophoresis. After ethidium bromide staining, the image was scanned with CCD camera (Atto) under UV transillumination and optical density of the band corresponding to the full length substrate DNA was quantified by densitometry (NIH image 1.60). DNase activity was determined using reduction of the band intensity corresponding to the full length substrate DNA as an index. In the present invention, 1 unit of DLAD and DNase II activities are defined as their amounts required to decrease the band intensity corresponding to 200 ng of the full length substrate DNA under the above-mentioned reaction conditions.
# DLAD activities were determined in the presence of various concentrations of DNase inhibitors [MgCl2 (FIG. 2A, ◯), MgSO4 (FIG. 2A, ●), aurintricarboxylic acid (FIG. 2B), G-actin (FIG. 2C), CoCl2 (FIG. 2D, ▪), NiCl2 (FIG. 2D, Δ) and ZnCl2 (FIG. 2D, ●)] under the above-mentioned standard conditions to analyze its sensitivity against the inhibitors. […] In contrast, it is known that there are little differences between these three divalent metal ions in inhibitory effect on DNase II [J. Biochem., 87: 1097-1103 (1980)].
# [2] = target: T1, DLAD; assay: Divalent cation-dependency of DLAD activity (chelators); assay type: biochemical; conditions: 1 mM chelator; pH 5.2 and pH 7.2; supercoiled plasmid
# Description: (§1) In the same manner as in (2) of Example 3, HeLa S3 cells (5×10^6) were transfected with 25 μg of pcmDLAD-Myc-His or pcmDNaseII-Myc-His, individually. These plasmids encode the mature proteins of DLAD and DNase II, respectively, wherein Myc and His-tags are added to their C termini. After incubation of the cells for 48 hr, recombinant DLAD and recombinant DNase II were purified by IMAC using Ni-NTA spin column, in the same manner as in (2) of Example 3. […]
# (§2) In the following experiments, the assay for DNase activity was performed as below, unless otherwise described. […] After ethidium bromide staining, the image was scanned with CCD camera (Atto) under UV transillumination and optical density of the band corresponding to the full length substrate DNA was quantified by densitometry (NIH image 1.60). DNase activity was determined using reduction of the band intensity corresponding to the full length substrate DNA as an index. […]
# Using a supercoiled plasmid as a substrate, DLAD activities in the presence and absence of a divalent cation chelator were determined under acidic (50 mM Mes-NaOH, pH 5.2) and neutral (50 mM Mops-NaOH, pH 7.2) conditions, respectively. […]
# [3] = Characterization of recombinant rat and human DLAD; assay type: biochemical; conditions: recombinant protein from HeLa S3 cells
# Source text: Using the same strategy as in Example 1, a rat EST clone (GenBank AF178974) encoding the amino acid sequence with homology to the deduced amino acid sequence of human DNase II was identified. Oligonucleotide primers were synthesized based on the nucleotide sequence of this clone, followed by the RACE with liver poly A(+) RNA derived from Wister rat, which is connately pigment-deficient (albino), as a template to clone the full length rat DLAD cDNA. From the sequence analysis by a conventional method, it was deduced that this cDNA contains an ORF encoding 356 amino acids with a signal peptide consisting of 22 amino acids at the N terminus. […] An expression vector encoding rat DLAD with Myc and His-tags at the C terminus (prDLAD-Myc-His) was constructed by the same strategy as in (1) of Example 3. HeLa S3 cells were transfected with this vector to generate a recombinant rat DLAD.
# (sequence complementary to the nucleotide sequence of the nucleotide Nos. 973 to 999 of the nucleotide sequence shown in Sequence Listing, SEQ ID NO: 4) were synthesized and, further using the above-mentioned linker primer AP1 together with these primers, RACE was performed with human liver-derived poly A(+) RNA as a template to clone the full length human DLAD cDNA. […]
# [4] = tested on: supercoiled p[…]+ phagemid vector; assay: Mode of DNA hydrolysis (end labeling of degraded plasmid); assay type: biochemical; conditions: standard conditions
# Description: Using a supercoiled pBLUESCRIPT KS+ phagemid vector as a substrate, enzyme reaction of DLAD or DNase II was performed under the above-mentioned standard conditions. After terminating the reaction, contaminants were removed by phenol/chloroform treatment to isolate degraded plasmid DNA. The 3′ ends were labeled in 50 μl of a reaction solution consisting of 20 units of terminal deoxynucleotidyl transferase (Toyobo), 0.83 mCi/ml […], 100 mM sodium cacodylate (pH 7.2), 0.2 mM DTT and 1 mM CoCl2. The 5′ ends were labeled in 50 μl of a reaction solution consisting of 20 units of polynucleotide kinase (Toyobo), 0.83 mCi/ml [γ-^32P]ATP, 50 mM Tris-HCl (pH 8.0), 10 mM MgCl2 and 10 mM 2-mercaptoethanol. The end-labeling treatments were performed as to both DNAs with and without pretreatment with 20 units of calf intestinal alkaline phosphatase (Takara) in the presence of 50 mM Tris-HCl (pH 8.0) and 1 mM MgCl2 to remove the phosphoryl groups in the ends of DNAs, respectively. Unincorporated nucleotides were removed by ethanol precipitation. The labeled DNA was subjected to 1% agarose gel electrophoresis, transferred onto nylon membrane and analyzed with BAS 1500 image analyzer (Fuji Film). […]
# [5] = tested on: supercoiled plasmid; assay: Active pH range and optimal pH of DNase activity; assay type: biochemical; conditions: Mes-NaOH; pH 4.0 to 7.6 examined
# Description: as §1, §2
# Using a supercoiled plasmid as a substrate, DLAD and DNase II activities were determined under the above-mentioned standard conditions except varying kinds of buffers and pH [i.e., acetate-NaOH (pH 4.0 and 4.4), Mes-NaOH (pH 4.8, 5.2, 5.6, 6.0 and 6.4) and Mops-NaOH (pH 6.4, 6.8, 7.2 and 7.6)]. […]
# [6] = Stability in the medium for HeLa S3 cells
molecule,measurement,setting,value
O=C(O)C1=CC(=C(c2ccc(O)c(C(=O)O)c2)c2ccc(O)c(C(=O)O)c2)C=CC1=O [Aurintricarboxylic acid],IC50,[1],0.006 mM
O=C(O)CN(CCN(CC(=O)O)CC(=O)O)CC(=O)O [EDTA],Effect of divalent cation chelator on DLAD activity,[2],no effect
O=C(O)CN(CCOCCOCCN(CC(=O)O)CC(=O)O)CC(=O)O [EGTA],Effect of divalent cation chelator on DLAD activity,[2],no effect
[Cl-].[Cl-].[Mg+2] [MgCl2],IC50,[1],13 mM
O=S(=O)([O-])[O-].[Mg+2] [MgSO4],IC50,[1],7 mM
"[Cl-].[Cl-].[Zn+2] [Zn^2+, ZnCl2]",IC50,[1],0.2 mM
B1,"Properties: active pH range, divalent cation-dependency, mode of DNA cleavage, sensitivity to inhibitors",[3],properties similar to mouse DLAD
B2,DNA cleavage mode (ends generated),[4],3′-P/5′-OH ends
same,Optimal pH of DNase activity,[5],5.2
same,Stability in the medium,[6],as stable as DNase II
B3,"Properties: active pH range, divalent cation-dependency, mode of DNA cleavage, sensitivity to inhibitors",[3],properties similar to mouse DLAD
